The text below walks through data of a polymer gas permeability compilation.

Take `*/C(C)=C(/*)[Si](C)(C)CCCC` (repeat unit): the CH4 permeability was determined as 17 Barrer, the CO2 permeability came out at 100 Barrer, the H2 permeability was determined as 65 Barrer and the N2 permeability came out at 8 Barrer. The compound also yielded an O2 permeability of 29 Barrer.
As for `*C(=C(*)c1ccc2c(c1)C(C)(C)CC2(C)C)c1cccc(F)c1` (repeat unit), the CH4 permeability was found to be 27800 Barrer, the CO2 permeability was 35200 Barrer, the H2 permeability stood at 27000 Barrer and the N2 permeability came out at 12000 Barrer. The compound further came in with an O2 permeability of 14300 Barrer.
In turn, `*C(=C(*)c1ccc2c(c1)C(C)(C)c1cc(Br)ccc1-2)c1ccccc1` (repeat unit) showed a CH4 permeability of 3000 Barrer, a CO2 permeability of 8000 Barrer, an H2 permeability of 3700 Barrer and an N2 permeability of 1100 Barrer. For the same compound, the O2 permeability was found to be 2000 Barrer.
Regarding `*C(=C(*)c1ccc2c(c1)C(C)(C)c1cc([Si](C)(C)C)ccc1-2)c1ccccc1` (repeat unit), the CH4 permeability was found to be 10000 Barrer, the CO2 permeability stood at 18000 Barrer, the H2 permeability came to 8500 Barrer and the N2 permeability is 3400 Barrer. Besides, the O2 permeability worked out at 5400 Barrer.
Compound `*c1cc(C)c2c(c1)S(=O)(=O)c1cc(N3C(=O)c4ccc(-c5ccc6c(c5)C(=O)N(*)C6=O)cc4C3=O)cc(C)c1-2` (repeat unit) had a CH4 permeability of 0.195 Barrer, a CO2 permeability of 7.73 Barrer, an H2 permeability of 28.2 Barrer and an N2 permeability of 0.499 Barrer. This compound gave an O2 permeability of 3.29 Barrer.
`*c1cc2c(cc1*)C1(C(C)C)c3ccccc3C2(C(C)C)c2cc3c(cc21)Oc1cc2nc(*)c(*)nc2cc1O3` (repeat unit) gave a CH4 permeability of 7.27 Barrer, an H2 permeability of 1100 Barrer, an N2 permeability of 7.09 Barrer and an O2 permeability of 61 Barrer.
For `*c1cc2c(cc1C)-c1cc(C)c(N3C(=O)c4ccc(C(c5ccc6c(c5)C(=O)N(*)C6=O)(C(F)(F)F)C(F)(F)F)cc4C3=O)cc1S2(=O)=O` (repeat unit), the CH4 permeability came to 1.74 Barrer, the CO2 permeability is 73.5 Barrer, the H2 permeability was determined as 156 Barrer and the N2 permeability came out at 3.27 Barrer. The same compound displayed an O2 permeability of 16.5 Barrer.
As for `*c1cc2c(cc1C)-c1cc(C)c(N3C(=O)c4ccc(S(=O)(=O)c5ccc6c(c5)C(=O)N(*)C6=O)cc4C3=O)cc1S2(=O)=O` (repeat unit), the CH4 permeability worked out at 0.244 Barrer, the CO2 permeability turned out to be 14.1 Barrer, the H2 permeability was 45.4 Barrer and the N2 permeability was found to be 0.37 Barrer. The compound also yielded an O2 permeability of 3.29 Barrer.
For `*c1cc2c(cc1O)C1(CC2(C)C)CC(C)(C)c2cc(N3C(=O)C4C(C3=O)C3(Br)C(Br)=C(Br)C4(Br)C4C(=O)N(*)C(=O)C43)c(O)cc21` (repeat unit) the same measures were 4.9 Barrer, 138 Barrer, 274 Barrer, 5.3 Barrer and 31.2 Barrer.
`*c1ccc(*)n1C` (repeat unit) had a CH4 permeability of 0.22 Barrer, a CO2 permeability of 6.9 Barrer, an N2 permeability of 0.33 Barrer and an O2 permeability of 2.04 Barrer.
`*c1ccc(-c2ccc(-c3ccc(C(*)(c4ccccc4)C(F)(F)F)cc3)cc2)cc1` (repeat unit) registered a CH4 permeability of 13 Barrer, a CO2 permeability of 220 Barrer, an H2 permeability of 126 Barrer and an N2 permeability of 9 Barrer. For the same compound, the O2 permeability was determined as 32 Barrer.
Consider `*c1ccc(-c2ccc(C(*)(C(F)(F)F)C(F)(F)F)cc2)cc1` (repeat unit), for which the CH4 permeability came to 34 Barrer, the CO2 permeability was 470 Barrer, the H2 permeability was found to be 470 Barrer and the N2 permeability worked out at 41 Barrer. The same compound had an O2 permeability of 120 Barrer.
With `*c1ccc(-c2ccc(N3C(=O)c4ccc(Oc5cc(C(C)(C)C)ccc5Oc5ccc6c(c5)C(=O)N(*)C6=O)cc4C3=O)c(OC)c2)cc1OC` (repeat unit), the CH4 permeability worked out at 0.16 Barrer, the CO2 permeability stood at 6.7 Barrer, the H2 permeability worked out at 22 Barrer and the N2 permeability was determined as 0.21 Barrer. The compound further came in with an O2 permeability of 1.4 Barrer.
In turn, `*c1ccc(-c2ccc(Oc3ccc(C4(c5ccc(Oc6ccc(-c7ccc(-n8c(=O)c9cc%10c(=O)n(*)c(=O)c%10cc9c8=O)cc7)cc6C(F)(F)F)cc5)c5ccccc5C(=O)N4c4ccccc4)cc3)c(C(F)(F)F)c2)cc1` (repeat unit) came in with a CH4 permeability of 0.79 Barrer, a CO2 permeability of 39.6 Barrer, an N2 permeability of 1.2 Barrer and an O2 permeability of 7.62 Barrer.
As to `*c1ccc(-c2ccc(Oc3ccc(C4(c5ccc(Oc6ccc(-c7ccc(N8C(=O)c9ccc(C(=O)c%10ccc%11c(c%10)C(=O)N(*)C%11=O)cc9C8=O)cc7)cc6C(F)(F)F)cc5)c5ccccc5C(=O)N4c4ccccc4)cc3)c(C(F)(F)F)c2)cc1` (repeat unit), the CH4 permeability is 0.62 Barrer, the CO2 permeability was 17.1 Barrer, the N2 permeability amounted to 0.83 Barrer and the O2 permeability was 4.33 Barrer.
For `*c1ccc(-c2ccc(Oc3ccc(C4(c5ccc(Oc6ccc(-c7ccc(N8C(=O)c9ccc(Oc%10ccc%11c(c%10)C(=O)N(*)C%11=O)cc9C8=O)cc7)cc6C(F)(F)F)cc5)c5ccccc5C(=O)N4c4ccccc4)cc3)c(C(F)(F)F)c2)cc1` (repeat unit) the same measures were 0.84 Barrer, 14.6 Barrer, 0.96 Barrer and 4.22 Barrer.
The compound `*c1ccc(-c2ccc(Oc3ccc(C4(c5ccc(Oc6ccc(-c7ccc(N8C(=O)c9ccc(Oc%10ccc(C(C)(C)c%11ccc(Oc%12ccc%13c(c%12)C(=O)N(*)C%13=O)cc%11)cc%10)cc9C8=O)cc7)cc6C(F)(F)F)cc5)c5ccccc5C(=O)N4c4ccccc4)cc3)c(C(F)(F)F)c2)cc1` (repeat unit) yielded a CH4 permeability of 0.84 Barrer, a CO2 permeability of 16.6 Barrer, an N2 permeability of 0.95 Barrer and an O2 permeability of 4.25 Barrer.
For `*c1ccc(-c2ccc(Oc3ccc4c(c3)C(C)(c3ccc(Oc5ccc(-c6ccc(-n7c(=O)c8cc9c(=O)n(*)c(=O)c9cc8c7=O)cc6)cc5C(F)(F)F)cc3)CC4(C)C)c(C(F)(F)F)c2)cc1` (repeat unit) the same measures were 1.52 Barrer, 44.7 Barrer, 2.36 Barrer and 12.2 Barrer.
`*c1ccc(-c2ccc(Oc3ccc4c(c3)C3(CC4(C)C)CC(C)(C)c4ccc(Oc5ccc(-c6ccc(N7C(=O)c8ccc(Oc9ccc%10c(c9)C(=O)N(*)C%10=O)cc8C7=O)cc6)cc5C(F)(F)F)cc43)c(C(F)(F)F)c2)cc1` (repeat unit) came in with a CH4 permeability of 0.41 Barrer, a CO2 permeability of 22.6 Barrer, an N2 permeability of 1.12 Barrer and an O2 permeability of 13.1 Barrer.
In turn, `*c1ccc(-c2nnc(-c3cccc(-c4nnc(*)n4-c4ccccc4)c3)n2-c2ccccc2)cc1` (repeat unit) displayed a CH4 permeability of 0.09 Barrer, a CO2 permeability of 5.2 Barrer, an N2 permeability of 0.14 Barrer and an O2 permeability of 1.16 Barrer.
Consider `*c1ccc(C(C)(C)c2ccc(-c3nc4cc(-c5ccc6[nH]c(*)nc6c5)ccc4[nH]3)cc2)cc1` (repeat unit), for which the CH4 permeability was found to be 0.07 Barrer, the CO2 permeability came out at 2.91 Barrer, the H2 permeability was 12.2 Barrer and the N2 permeability stood at 0.13 Barrer. This compound came in with an O2 permeability of 0.6 Barrer.
The compound `*c1ccc(C(C)(C)c2ccc(N3C(=O)c4ccc(C(c5ccc6c(c5)C(=O)N(*)C6=O)(C(F)(F)F)C(F)(F)F)cc4C3=O)cc2)cc1` (repeat unit) yielded a CH4 permeability of 0.698 Barrer, a CO2 permeability of 30 Barrer, an N2 permeability of 1.34 Barrer and an O2 permeability of 7.5 Barrer.
Compound `*c1ccc(C(C)(C)c2ccc(N3C(=O)c4ccc(Oc5ccc(Oc6ccc7c(c6)C(=O)N(*)C7=O)cc5)cc4C3=O)cc2)cc1` (repeat unit) came in with a CH4 permeability of 0.0692 Barrer, a CO2 permeability of 2.65 Barrer, an H2 permeability of 9.33 Barrer and an N2 permeability of 0.104 Barrer. Moreover, the O2 permeability stood at 0.586 Barrer.
Take `*c1ccc(C(c2ccc(-c3nnc(*)n3-c3ccc(O)cc3)cc2)(C(F)(F)F)C(F)(F)F)cc1` (repeat unit): the CH4 permeability was 6.69 Barrer, the CO2 permeability was 268 Barrer and the N2 permeability came out at 10.2 Barrer.
Consider `*c1ccc(C(c2ccc(-c3nnc(*)o3)cc2)(C(F)(F)F)C(F)(F)F)cc1` (repeat unit), for which the CH4 permeability stood at 4.55 Barrer, the CO2 permeability amounted to 123 Barrer and the N2 permeability was found to be 6.1 Barrer.
On to `*c1ccc(C(c2ccc(-n3c(=O)c4cc5c(=O)n(*)c(=O)c5cc4c3=O)cc2)(C(F)(F)F)C(F)(F)F)cc1` (repeat unit), for which the CH4 permeability came out at 0.78 Barrer, the CO2 permeability stood at 27.7 Barrer, the H2 permeability was determined as 59.1 Barrer and the N2 permeability came out at 1.39 Barrer. Further, the O2 permeability came to 7.1 Barrer.
As for `*c1ccc(C(c2ccc(-n3c(=O)c4cc5oc6cc7c(cc6oc5cc4c3=O)C3(CC(C)(C)c4cc5oc6cc8c(=O)n(*)c(=O)c8cc6oc5cc43)CC7(C)C)cc2)(C(F)(F)F)C(F)(F)F)cc1` (repeat unit), the CH4 permeability is 27 Barrer, the CO2 permeability is 520 Barrer, the H2 permeability was determined as 360 Barrer and the N2 permeability came to 23 Barrer. The same compound returned an O2 permeability of 85 Barrer.
`*c1ccc(C(c2ccc(N3C(=O)c4ccc(-c5ccc6c(c5)C(=O)N(*)C6=O)cc4C3=O)cc2)(C(F)(F)F)C(F)(F)F)cc1` (repeat unit): the CH4 permeability was determined as 0.611 Barrer, the CO2 permeability amounted to 22.1 Barrer, the N2 permeability came to 0.979 Barrer and the O2 permeability came to 5.22 Barrer.
For `*c1ccc(C(c2ccc(N3C(=O)c4ccc(C(c5ccc6c(c5)C(=O)N(*)C6=O)(C(F)(F)F)C(F)(F)F)cc4C3=O)cc2)(C(F)(F)F)C(F)(F)F)cc1` (repeat unit), the CH4 permeability was 1.6 Barrer, the CO2 permeability was 63.9 Barrer, the H2 permeability was 108 Barrer and the N2 permeability was found to be 3.36 Barrer. The same compound gave an O2 permeability of 16.2 Barrer.
